According to patent EP0926242A1, “GLIOTOXIN DERIVATIVES AND ANTICANCER AGENT COMPRISING THE SAME” (priority 1996, dated 1998):
In brackets after ≈: the same amount, converted by molar mass.

What was measured:
[1] = test system: HCT-116 (human carcinoma of the colon); assay: Cytotoxity of acetylgliotoxin by the MTT method; format: cell-based; settings: HCT-116, 72 hours
Protocol: (§1) Antitumor activity of acetylgliotoxin against various cancer cells was measured by the MTT method. Various cancer cells were adjusted to 4.0 × 10^4 cells/mL by using a medium (hereinafter referred to as medium A) composed of RPMI 1640 medium (GIBCO) containing 10% fetal calf serum, and each 0.1 mL of the cancer cells was pipetted into each well of a 96 well microtiter plate. The plate was incubated in a carbon dioxide gas incubator at 37 °C for 20 hours, and each 0.025 mL of samples (test compounds) suitably diluted with the medium A was added. Then, incubation was further carried out in the carbon dioxide gas incubator at 37 °C for 72 hours. Each 0.01 mL of the MTT solution adjusted to 5 mg/mL by using Dulbecco's PBS (-) (Nissui) was added thereto, and incubated in the carbon dioxide gas incubator at 37 °C for 3 hours. Subsequently, each 0.05 mL of 0.01 N HCl/20 % SDS was added. Produced crystals were dissolved, and absorbance at 570 nm was measured by a microplate reader. By comparing the absorbance of the cells treated with the sample in the known concentration with that of non-treated cells, the sample concentration which inhibits multiplication of the cells at the rate of 50% (IC50) was calculated. Apoptosis was determined by incubating the plate in the carbon dioxide gas incubator at 37 °C for 20 hours, adding each 0.025 mL of samples (test compounds) suitably diluted with the medium A, incubating in the carbon dioxide gas incubator at 37 °C for 72 hours, according to the above method, adding nucleus-staining fluorescent dye DAPI (4,6 - diaminodino-2-henylindole) to each well so as to become 0.5 ng/mL, and after leaving at room temperature for 10 minutes, confirming agglomeration of chromosomes by using a fluorescence microscope.
(§2) Human leukemia cells (K 562 : Dainippon Seiyaku), human carcinoma cells of the colon (HCT-15, HCT-116, SW946: Dainippon Seiyaku), human leukemia cells (U 937: Dainippon Seiyaku), human lung cancer cells (LX-1: Biseibutsu Kagaku Kenkyu-sho), mouse leukemia cells (P 388 : Dainippon Seiyaku), mouse carcinoma cells of the colon (colon-26 : Gan Kenkyu-kai, Gan Kenkyu-sho) Table 1

[2] = test system: HCT-15 (human carcinoma of the colon); assay: Cytotoxity of acetylgliotoxin by the MTT method; format: cell-based; settings: HCT-15, 72 hours
Protocol: as §1, §2

[3] = test system: LX-1 (human lung cancer ); assay: Cytotoxity of acetylgliotoxin by the MTT method; format: cell-based; settings: LX-1, 72 hours
Protocol: as §1, §2

[4] = test system: P388 (mouse leukemia ); assay: Cytotoxity of acetylgliotoxin by the MTT method; format: cell-based; settings: P388, 72 hours
Protocol: as §1, §2

[5] = test system: SW948 (human carcinoma of the colon); assay: Cytotoxity of acetylgliotoxin by the MTT method; format: cell-based; settings: SW948, 72 hours
Protocol: as §1, §2

[6] = test system: U937 (human leukemia ); assay: Cytotoxity of acetylgliotoxin by the MTT method; format: cell-based; settings: U-937, U937, 72 hours
Protocol: as §1, §2

[7] = test system: colon-26 (mouse carcinoma of the colon ); assay: Cytotoxity of acetylgliotoxin by the MTT method; format: cell-based; settings: colon-26, 72 hours
Protocol: as §1, §2

[8] = test system: various cancer cells; assay: Judgement of apoptosis by DAPI nucleus staining; format: cell-based; settings: agglomeration of chromosomes, fluorescence microscope
Protocol: as §1, with “Each 0.01 mL of the MTT solution adjusted to 5 mg/mL by using Dulbecco's PBS (-) (Nissui) was added thereto, and incubated in the carbon dioxide gas incubator at 37 °C for 3 hours. Subsequently, each 0.05 mL of 0.01 N HCl/20 % SDS was added.” left out, “By comparing the absorbance of the cells treated with the sample in the known concentration with that of non-treated cells, the sample concentration which inhibits multiplication of the cells at the rate of 50% (IC50) was calculated.” left out

[9] = test system: Human carcinoma of the colon cell strain HCT-116; assay: Tertiary culture using test human cancer, killed cells by MTT method; format: cell-based; settings: incubated 3 days
Protocol: Tertiary cultures were carried out using a human carcinoma of the colon tissue in stage 2b. The tertiary cultures were carried out according to the reported method (Int.J.Cancer Res., 82, 607-612 (1991), Gan to Kagakuryoho, 18, 239-243 (1991), Gan to Kagakuryoho, 19, 743-748 (1992)). The extracted tissue of carninoma of the colon was cut into square pieces having a side of about 2 mm, and incubated in a RPMI- 1640 medium containing 10 % fetal calf serum under 5 % CO2 at 37 °C for 3 days. Existing anticancer agents or acetylgliotoxin were diluted and added, and further incubated for 3 days. Then, the rate of killed cells was determined by the MTT method. The tertiary cultures using the test human cancer were carried out as follows: Human carcinoma of the colon cell strain HCT-116 was transplanted into the subcutaneous tissue of a nude mouse (Balb nu/nu) to induce tumor. The cancer tissue was extracted from the tumor-induced portion, and cut into square pieces having a side of 2 mm. The evaluation of the existing anticancer agents and acetylyliotoxin was earried out according to the aforementioned method.

[10] = test system: mouse carcinoma of the colon cells colon 26; assay: Anticancer effect in vivo against colon 26 (Example 9 A); settings: CDFI mice
Protocol: • (A) Evaluationin vivo using mouse carcinoma of the colon cells colon 26 CDFI mice (female : 4 weks age) were bought, and colon 26 subcultured in the subcutaneous tissue of the mouse was taken out, and cut into small pieces by a scissors. The cancer cells were transplanted into subcutaneous tisue of CDFI mice by a trucker. The day was assigned 0 day, and the tumor was measured by a slide caliper after 7 days. The volume of the tumor was calculated, and divided into groups (each group : n = 4). The text compound was dissolved in dimethylsulfoxide, and diluted with 5 % Tween 80- saline aqueous solution. […] The administration was carried out after 7 days, after 11 days and after 15 days or after 7 days and after 8 days from the transplantation at a rate of once per one day. 21st day from the transplantation, the volume of tumor was measured and the volume of tumor and the inhibition against tumor multiplication rate (I.R.) were calculated. The volume of tumor was calculated by the following formula. (Tumore Volume [mm)^3 (]= Minor Axis [mm])^2 × Major Axis [mm] × (1/2) [formula] • The inhibition against tumor multiplication rate (I.R.) was calculated by the following formula. I.R. [%] = {1- (Average Tumor Volume of Administration Group / Average Tumor Volume of Control Group)) × 100 [formula] • (B) Evaluation in vivo using human carcinoma of the colon cells HCT-116 Balb/c nu/nu mice (female : 5 weks age) were bought, and HCT-116 (Dainippon Seiyaku) subcultured in the subcutaneous tissue of the mouse was taken out, and cut into small pieces by a scissors. The cancer cells were transplanted into subcutaneous tissue of […] mice by a trucker. The day was assigned 0 day, and the tumor was measured by a slide caliper after 7 days. The volume of the tumor was calculated, and divided into groups (each group : n = 2). The text compound was dissolved in dimethylsulfoxide, and diluted with 5 % Tween 80- saline aqueous solution. […] The administration was carried out after 7 days, after 11 days and after 15 days from the transplantation at a rate of once per one day. 21st day from the transplantation, the volume of tumor was measured and the volume of tumor and the inhibition against tumor multiplication rate (I.R.) were calculated by the above formulas.

[11] = 2.5[mg/kg]×3 (i.p.), 7,11,15th days
[12] = 5 [mg/kg]×3 (i.p.), 7,11,15th days
[13] = 10 [mg/kg]×2 (i.p.), 7,8th days

Question: What does the source list for `CC(=O)OC1C=CC=C2CC34SSC(CO)(C(=O)N3C21)N(C)C4=O` (centres unmarked) [acetylgliotoxin]?
Answer: IC50 [1]: 0.18 µg/mL (≈ 0.489 µM); IC50 [2]: 0.039 µg/mL (≈ 0.106 µM); IC50 [3]: 0.074 µg/mL (≈ 0.201 µM); IC50 [4]: 0.0058 µg/mL (≈ 0.0157 µM); IC50 [5]: 0.19 µg/mL (≈ 0.516 µM); IC50 [6]: 0.014 µg/mL (≈ 0.038 µM); IC50 [7]: 0.076 µg/mL (≈ 0.206 µM); apoptosis (cell death) -inducing ability [8]: apoptosis (cell death) -inducing ability; I. R. (%) ([9]; conc. 6.25 ug/mL): 43%; I. R. (%) ([9]; conc. 12.5 ug/mL): 56%; I. R. (%) ([9]; conc. 25 ug/mL): 67%; I.R. (21st day) [10, 11]: 19.6%; I.R.Max [10, 11]: 44.9%; I.R. (21st day) [10, 12]: 11.8%; I.R.Max [10, 12]: 56.8%; I.R. (21st day) [10, 13]: 26.0%; I.R.Max [10, 13]: 68.8%
